Series [1] concerns MRC5 cells. The series is described as follows: cells. The class given is cell-based. Conditions: Homo sapiens; MRC5, treated for 24 h, mean (SE); read-out: calculated IC50. Here is the method:
(§1) To evaluate cell viability, an MTT assay was performed. […] Cell viability was directly proportional to registered absorbance and was expressed as relative viability with respect to vehicle-treated cells.

Series [2] concerns Caco-2 cells. In words: cells. In kind it is cell-based. Conditions: Homo sapiens; Caco-2, treated for 24 h, mean (SE); read-out: calculated IC50. The protocol: as §1
In series [3] the test system is HaCat cells. The series is described as follows: cells. The class given is cell-based. Conditions: Homo sapiens, treated for 24 h, mean (SE), read-out: calculated IC50. The protocol:
as §1

Series [4] deals with HEK 293 cells. In words: cells. In kind it is cell-based. Conditions: Homo sapiens, HEK293; HEK 293, treated for 24 h, mean (SE); read-out: calculated IC50. Here is the method:
as §1

In series [5] the test system is HepG2 cells. In words: cells. Conditions: Homo sapiens; HepG2, treated for 24 h, mean (SE); read-out: calculated IC50. In kind it is cell-based. Here is the method: as §1
Series [6] concerns CAT, SOD. The series is described as follows: Western blot of CAT and SOD. The class given is cell-based, human. Here is the method:
(§2) Western blot analyses were performed to detect protein levels and the expression of several proteins after treatments with 4-OP. After treatments, cells were mechanically harvested and lysed in a buffer containing the following: 20 mM Tris-HCl, pH 7.5, 150 mM NaCl, 1 mM EDTA, 1 mM dithiothreitol, 0.1% sodium dodecyl sulfate, 1% Triton X-100, 1 mM orthovanadate and an inhibitor cocktail (all from Merck). The protein mixtures were resolved in a polyacrylamide denaturant gel and then electrotransferred to a polyvinylidene difluoride (PVDF) membrane (Microtech, Naples, Italy) by using the Trans-Blot Turbo Transfer System (Bio-Rad Laboratories, Milan, Italy). After a blocking step with 5% skimmed milk in Tris-buffered saline (TBS), membranes were incubated with the following primary antibodies, diluted 1:1000 in T-TBS-1% milk: mouse anti-p53 (Santa Cruz, CA, USA); mouse anti-GRP78 (Invitrogen, Milan, Italy); rabbit anti-LC3 (Invitrogen); mouse anti-caspase 3 (Invitrogen); mouse anti-p62 (Invitrogen); rabbit anti-SOD (Elabscience, Houston, TX, USA); rabbit anti-CAT (Elabscience). For normalization, a mouse anti-GAPDH (Santa Cruz) diluted 1:4000 in T-TBS-1% milk was used.
On the technique in general: Immunoblotting shows a protein as a band on a membrane.

Series [7] concerns GRP78. The series is described as follows: Western blot of GRP78 in MRC5 cells. The class given is cell-based, human. Conditions: MRC5, 24 h. Here is the method: as §2
The subject of series [8] is GRP78. The series is described as follows: Western blot of GRP78 in Caco-2 cells. The class given is cell-based, human. Conditions: Caco-2, 24 h. The protocol:
as §2

The test system of series [9] is GRP78. In words: Western blot of GRP78 in HepG2 cells. The class given is cell-based, human. Conditions: HepG2, 24 h, higher induction at 100 μM. The protocol: as §2
Series [10] has as its system p62, LC3-II. The series is described as follows: Western blot of autophagic markers p62 and LC3-II. The class given is cell-based, human. The protocol:
as §2

The subject of series [11] is HepG2 cells. In words: Apoptosis: cleaved caspase 3 Western blot and TUNEL assay. The class given is cell-based, human. Conditions: HepG2, caspase-3 8 h, TUNEL 24 h. Here is the method: as §2
Microscope observation and image acquisition were performed as described above.

Series [12] relates to p53. The series is described as follows: Western blot of p53. Conditions: HepG2, 24 h, higher concentrations used. In kind it is cell-based, human. The protocol: as §2
For series [13], the system named is HepG2 cells. In words: LC3 immunofluorescence staining. In kind it is cell-based, human. Conditions: HepG2, 24 h, compared with vehicle. The protocol:
Then, coverslips were incubated for 1 h with the anti-LC3 rabbit antibody (1:100, in 1% bovine albumin serum) and then with an anti-rabbit tetramethylrhodamine-conjugated antibody (1:100, in 0.1% bovine serum albumin) (Thermo Fisher Scientific). After washing, coverslips were mounted with Mowiol and observed with an Olympus CKX41 fluorescent microscope (Olympus Italia srl, Segrate, Italy) and processed with the Olympus CKX41 software (cellSens Dimension 1.5).

For series [14], the system named is XBP1. In words: XBP1 splicing detection by conventional PCR. In kind it is cell-based, human. Conditions: HepG2, 4 h, 100 μM. The protocol:
To obtain cDNA, 1 μg of RNA was retro-transcribed employing the QuantiTect Reverse Transcription Kit (Qiagen, Milan, Italy). Finally, a conventional PCR was performed to amplify the unspliced and the spliced form for XBP1, with the following primers: 5′-[…]-3′ and 5′-[…]-3′, as previously reported. Amplified cDNA was run on a 2.5% agarose gel and stained with ethidium bromide.

In series [15] the test system is type 2 transglutaminase. In words: Type 2 transglutaminase activity in Caco-2 cells in Ca2+-free condition. In kind it is cell-based, human. Conditions: Caco-2, Ca2+-free condition, preliminary. The text has this:
It has often been reported that apoptosis induced by EDCs can be caused by an unsolved ER-stress.

As for `CCCCCCCCCc1ccc(O)cc1` [4-NP, 4-nonylphenol], the concentration for half-maximal inhibition (IC50) in [1] was 75.8 µM; in [2], 93.3 µM; in series [3], 77.4 µM; in [4], 62.6 µM; in series [5], 83.3 µM.
As to `CCCCCCCCc1ccc(O)cc1` [4-OP, 4-octylphenol], in [6] (HepG2, 4 h), the CAT level entry is recorded as “did not vary”. Also, the SOD level entry in series [6] (HepG2, 4 h, 100 μM) is on record as “reduction”. Besides, the SOD expression level entry is “lower” in series [6] (HepG2, 18 h, 25 μM, vs vehicle-treated cells) and “increased” in series [6] (HepG2, 18 h, 50 μM). The CAT protein level entry in [6] (HepG2, 18 h, 50 μM, compared to the control) is reported as “significantly more expressed”. The GRP78 expression result in series [7] is on record as “markedly induced”; in series [8] it was “less evident”; in series [9], “increase in a dose-dependent manner”. Also, the p62 level entry in series [10] (HepG2, 4 h) was “decreased”. Besides, the “LC3-II level on adding Baf A1” value in series [10] (HepG2, 4 h 4-OP then further 20 h Baf A1 50 nM) is “further accumulation of LC3-II”. Further, the LC3-II level result in [10] (HepG2, 24 h) is “increased”. In addition, the “apoptosis (cleaved caspase 3, chromatin fragmentation)” value in [11] is recorded as “able to induce apoptosis”. Moreover, the p53 expression entry in series [12] is “decreased”. Moreover, in [13], the “autophagosomes (LC3 perinuclear puncta)” value is given as “accumulation of autophagosomes”. In addition, in series [14], the XBP1 spliced form entry was “splicing was clear”.
Turning to `C[C@H](CCC(=O)O)C[C@H](C)C[C@H](C)C(=O)/C=C(\O)[C@H](C)C[C@H](C)C/C=C/[C@@H](C)[C@@H](O)[C@@H](C)[C@@H](O)C[C@@H]1CC[C@@](C)([C@H]2CC[C@@](C)([C@@H](C)O)O2)O1` [ionomycin], the “increase of transglutaminase activity” value in series [15] is “did not increase”.

Broadly, the IC50 is the point on the concentration scale where inhibition reaches its midpoint.

The record behind these values is paper PMC11641860 (International Journal of Molecular Sciences, 2024).
